What was measured:
[1] = tested on: Trop2 positive SKBR-3 cells; test: Antibody mediated internalization in Trop2 expressing tumor cells, FACS; assay type: cell-based; conditions: 100 nM
Protocol: The Trop2 positive cell line SKBR-3 cells (Breast cancer, ATCC No. HTB30) were used for the following internalization assay. The culture conditions are the same as in Example 21.
(§1) Cells were harvested with 0.25% Trysin/EDTA (T1320, Solarbio) and adjusted the cell concentration to 4×10^6 cells/mL with 1×PBS containing 1% FBS buffer. 100 μL cells per well were then plated in the 96-well cell culture plates and incubated with Trop2 antibodies Trop2-1, Trop2-2, Datopotamab, and Sacituzumab, as well as exemplary anti-Trop2 ADCs (ADC-4, ADC-5, ADC-6, ADC-7, ADC-8 and ADC-9) at final concentration 100 nM for seven time points (0, 0.5, 2, 4, 8, 16, and 24 hours). The mixtures were incubated at 4° C. in an atmosphere of 5% CO2 in air. At specific time points, cells were immediately washed twice and suspended in 100 μL cold wash buffer containing 2% paraformaldehyde for 30 mins. Cells were washed twice and then incubated with 1×PE anti-human IgG Fc Antibody (Cat. No. 366904, Biolegend) at 4° C. and 5% CO2 for another one hour. After the two-step washing by washing buffer, cells were re-suspended in 100 μL FACS buffer, CytoFlex Cytometry (Beckman Coulter) was used to detect the fluorescent signals of cells. The internalization ratio at several time points were calculated as the missing rate of MFI values at specific time point in that at 0 hours. Curves of internalization rate versus incubation time (hours) were plotted with the Graphpad Prism Software.

[2] = tested on: MCF-7 cells; test: In vitro cytotoxic assay of anti-Trop2 ADCs (CellTiter-Glo); assay type: cell-based; conditions: for Bottom (%): curve fit bottom
Protocol: (§2) In brief, 5,000 cells/well were platted in white clear 96-well assay plates (Cat. No. 6005182, PerkinElmer) (excluding edge wells, which contained medium only) in 90 μL basic culture medium (McCoy's 5a medium for SKBR-3 cells, RPMI-1640 medium for NCI-N87 cells, EMEM medium for MCF-7 cells, and Leibovitz's L-15 medium for MDA-MB-468 cells) containing 10% FBS, I % Penicillin-Streptomycin Solution (BL505A, Biosharp Life Sciences), and 2 mM L-Glutamine (Cat. No. 25030081, ThermoFisher) and were grown at 37° C. in a humidified incubator at 5% CO2 atmosphere. […] After additional 72-hour incubation, plates were removed from incubator and equilibrated to room temperature. After approximately 30 mins, 50 μL of CellTiter-Glo® 2.0 Luminescent Cell Viability Reagent (Cat. No. G7573, Promega) were added to each well. After shaking the plates at 450 rpm for 3 mins followed by 10-min incubation without shaking, luminescence was measure on the Envision plate reader (Equipment No. 2104, PerkinElmer) with integration time of 250 ms per well. Curves of luminescence versus ADC concentration (μM) were fitted with GraphPad Prism Software.

[3] = tested on: SKBR-3 cells; test: as above; assay type: cell-based; conditions: for Bottom (%): curve fit bottom; for Top (%): curve fit top
Protocol: as §2

[4] = tested on: SKBR-3, NCI-N87, MCF-7, and MDA-MB-468 cells; test: In vitro cytotoxic assays of anti-Trop2 ADCs, statements on all test cell lines; assay type: cell-based; conditions: four Trop-2 expressing cell lines, FIG. 6
Protocol: Cytotoxicity of exemplary free linker-payloads (Compounds 2, 3 and 4), free Trop2 antibodies (Trop2-1, Trop2-2, Datopotamab, and Sacituzumab), exemplary anti-Trop2 ADCs (ADC-4, ADC-5, ADC-6, ADC-7, ADC-8 and ADC-9) and Trodelvy (an anti-Trop2 ADC approved by FDA) as positive control was evaluated on SKBR-3 cells (Breast cancer, ATCC No. HTB30), NCI-N87 cells (Gastric cancer, ATCC No. CRL-5822), MCF-7 cells (Breast cancer, ATCC No. HTB-22), and MDA-MB-468 cells (Breast cancer, ATCC No. HTB-132).
as §2, with “After” for “After additional 72-hour incubation, plates were removed from incubator and equilibrated to room temperature. After approximately 30 mins, 50 μL of CellTiter-Glo® 2.0 Luminescent Cell Viability Reagent (Cat. No. G7573, Promega) were added to each well. After”

[5] = tested on: HER2 positive SKBR-3 cells; test: Antibody mediated internalization in HER2 expressing tumor cells, FACS; assay type: cell-based; conditions: 100 nM
Protocol: (§3) The culture conditions of two cell lines are the same as in Example 18.
as §1, with “(Tl 320,” for “(T1320,”, “100 μL cells per well were then plated in the 96-well cell culture plates and incubated with Trop2 antibodies Trop2-1, Trop2-2, Datopotamab, and Sacituzumab, as well as exemplary anti-Trop2 ADCs (ADC-4, ADC-5, ADC-6, ADC-7, ADC-8 and ADC-9) at final concentration 100 nM for seven time points (0, 0.5, 2, 4, 8, 16, and 24 hours).” left out, “median fluorescence intensity (MFI)” for “MFI”

[6] = tested on: HER2 positive NCI-N87 cells; test: as above; assay type: cell-based; conditions: 100 nM
Protocol: as §3
as §1, with “(Tl 320,” for “(T1320,”, “100 μL cells per well were then plated in the 96-well cell culture plates and incubated with Trop2 antibodies Trop2-1, Trop2-2, Datopotamab, and Sacituzumab, as well as exemplary anti-Trop2 ADCs (ADC-4, ADC-5, ADC-6, ADC-7, ADC-8 and ADC-9) at final concentration 100 nM for seven time points (0, 0.5, 2, 4, 8, 16, and 24 hours).” left out, “median fluorescence intensity (MFI)” for “MFI”

[7] = tested on: NCI-N87 cells; test: In vitro cytotoxic assay of anti-Trop2 ADCs (CellTiter-Glo); assay type: cell-based
Protocol: as §2

[8] = tested on: MDA-MB-468 cells; test: as above; assay type: cell-based
Protocol: as §2

[9] = tested on: NCI-N87 cell xenograft; test: In vivo therapeutic efficacy in NCI-N87 cell xenograft mouse model; design: species or system BALB/c female nude mice; conditions: 5 mg/kg, IV, BIW*3
Protocol: On day 0, NCI-N87 cells (1×10^7 with 1:1 Matrigel) suspended in 0.2 mL PBS supplement with 50% (v/v) matrigel were injected subcutaneously in the right upper flank of 6- to 8-wk-old BALB/c female nude mice (purchased from Beijing Vital River Laboratory Animal Technology Co., Ltd). On day 6, mice were randomized to 8 groups (n=6) when the average tumor volume was 178 mm^3. Treatments were initiated on the very same day (defined as PG-D0). Mice at Trodelvy group received 5.0 mg/kg (i.v., BIW) for 3 wk; mice at the ADC-5 treatment groups were injected with 1.0, 2.5, and 5.0 mg/kg (i.v., BIW) ADC-5 for 3 wk; mice at ADC-6 treatment groups were injected (i.v.) with 1.0 and 2.5 mg/kg ADC-6 weekly (QW) for three doses, or 5.0 mg/kg (single dose at day PG-D0). The tumor volumes and body weights were measured and recorded twice a week. On the termination day 28 (defined as PG-D28), tumor weight were dissected and measured. Tumor growth inhibition rate (%) was calculated as (TVCR−TVTR)/TVCR (%), where TVCR and TVTR are the relative tumor volumes of the vehicle control group and the experimental groups, respectively. Mice were euthanized and deemed to have succumbed to disease once tumors grew greater than 2,500 mm^3. GraphPad Prism 6.0 Software was used for statistical analysis with a one-way ANOVA.

[10] = 72-hour incubation, read-out: ReIC50

Sacituzumab: free Trop2 antibody was tested, and the “MFI value of internalization assay” value ([1]; 0 h) was 216386, the “MFI value of internalization assay” value ([1]; 0.5 h) was 205198.9 and the “MFI value of internalization assay” value ([1]; 2 h) was 90975.5. For the same molecule, the “MFI value of internalization assay” value ([1]; 4 h) was 75749.9, the “MFI value of internalization assay” value ([1]; 8 h) was 47695.7 and the “MFI value of internalization assay” value ([1]; 16 h) was 33528.1. For the same molecule, the “MFI value of internalization assay” value ([1]; 24 h) was 32475, the “Bottom (%)” value [2] was 0% and the “Bottom (%)” value [3] was 3.225%. The “Top (%)” value [3] was 9.741% and the “cytotoxic activity on the test cell lines” value [4] was “no target cell killing effect”.

For T-DM1, the “MFI value of internalization assay” value ([5]; 0 h) was 89030.9, the “MFI value of internalization assay” value ([5]; 0.5 h) was 54683.9 and the “MFI value of internalization assay” value ([5]; 2 h) was 51777.7. The “MFI value of internalization assay” value ([5]; 4 h) was 39019.6, the “MFI value of internalization assay” value ([5]; 8 h) was 31583.1 and the “MFI value of internalization assay” value ([5]; 16 h) was 29393.7. The “MFI value of internalization assay” value ([5]; 24 h) was 20671.3, the “MFI value of internalization assay” value ([6]; 0 h) was 455385 and the “MFI value of internalization assay” value ([6]; 0.5 h) was 452742.7. For the same molecule, the “MFI value of internalization assay” value ([6]; 2 h) was 475100.1, the “MFI value of internalization assay” value ([6]; 4 h) was 369328.5 and the “MFI value of internalization assay” value ([6]; 8 h) was 345220.2. For the same molecule, the “MFI value of internalization assay” value ([6]; 16 h) was 362105.3 and the “MFI value of internalization assay” value ([6]; 24 h) was 317532.7.

With Trodelvy the IC50 [2, 10] was 40.5 nM, the “Bottom (%)” value [2] was 0% and the “Top (%)” value ([2]; curve fit top) was 35.94%. The IC50 [7, 10] was 5.39 nM, the “Bottom (%)” value ([7]; curve fit bottom) was 0% and the “Top (%)” value ([7]; curve fit top) was 76.68%. The IC50 [8, 10] was 2.33 nM, the “Bottom (%)” value ([8]; curve fit bottom) was 0% and the “Top (%)” value ([8]; curve fit top) was 79.13%. The IC50 [3, 10] was 0.846 nM, the “Bottom (%)” value [3] was 0% and the “Top (%)” value [3] was 78.16%. The “TGI (%) in days after administration, Day 3” value ([9]; Day 3) was 44.83%, the “TGI (%) in days after administration, Day 7” value ([9]; Day 7) was 44.43% and the “TGI (%) in days after administration, Day 10” value ([9]; Day 10) was 39.67%. The “TGI (%) in days after administration, Day 14” value ([9]; Day 14) was 42.59%, the “TGI (%) in days after administration, Day 17” value ([9]; Day 17) was 49.05% and the “TGI (%) in days after administration, Day 21” value ([9]; Day 21) was 55.07%. For the same molecule, the “TGI (%) in days after administration, Day 24” value ([9]; Day 24) was 55.32% and the “TGI (%) in days after administration, Day 28” value ([9]; Day 28) was 54.53%.

B1: Datopotamab: native human IgG1 antibody of DS-1062 from Daiichi Sankyo, free antibody control (antibody, chains of the INN, looked up, V domains shown)
VH: QVQLVQSGAEVKKPGASVKVSCKASGYTFTTAGMQWVRQAPGQGLEWMGWINTHSGVPKYAEDFKGRVTISADTSTSTAYLQLSSLKSEDTAVYYCARSGFGSSYWYFDVWGQGTLVTVSS
VL: DIQMTQSPSSLSASVGDRVTITCKASQDVSTAVAWYQQKPGKAPKLLIYSASYRYTGVPSRFSGSGSGTDFTLTISSLQPEDFAVYYCQQHYITPLTFGQGTKLEIK
With B1 the “MFI value of internalization assay” value ([1]; 0 h) was 237324.4, the “MFI value of internalization assay” value ([1]; 0.5 h) was 112896.1 and the “MFI value of internalization assay” value ([1]; 2 h) was 41192.3. The “MFI value of internalization assay” value ([1]; 4 h) was 33418.6, the “MFI value of internalization assay” value ([1]; 8 h) was 19928.3 and the “MFI value of internalization assay” value ([1]; 16 h) was 14134.9. For the same molecule, the “MFI value of internalization assay” value ([1]; 24 h) was 8497.3.
